Assay results: patent US11045489B2, “Prognostic methods and systems of treatment for acute lymphoblastic leukemia” (MOR RESEARCH APPLICATIONS LTD., priority 2014, dated 2021)

Tests used:
[1] = test system: Phosphorylated STAT5; assay: Phospho-STAT5 levels by FACS in transfected NALM-6 cells; type: cell-based; details: NALM-6 cell line
Description: Phosphorylated STAT5 (phospho-STAT5) levels were measured by FACS analysis following transfection of miR-1290 mimic (overexpression) into NALM-6 cell line. An increase of 50% in the levels of pSTAT5 protein is evident in the cells expressing high levels of miR-1290 (FIG. 11).

[2] = test system: SOCS4; assay: SOCS4 protein levels by Western blotting in transfected Nalm6 cells; type: cell-based; details: Nalm6 cell line, over-expression of miR-1290, Western blotting
Description: Following transfection of miR-1290 mimic (SEQ ID NO: 4, over-expression), miR-1290 inhibitor (SEQ ID NO: 5, silencing), and miR-scramble (control), into the Nalm6 cell line, the protein levels of SOCS4 were measured using Western blotting (p=0.029; FIG. 9). The values shown in the figure are mean±S.D from 3 experiments.

[3] = test system: Nalm-6 cells; assay: Sensitivity to FK866 (NAD+ levels) of NALM-6 cells transfected with miR-451 mimic or inhibitor; type: cell-based; details: 3 hours
Description: The sensitivity of NALM-6 cells to the NAMPT inhibitor FK866 was measured in cells following transfection with miR-451 mimic or miR-451 inhibitor (FIG. 8). The sensitivity was measured by levels of NAD^+. […] Thus, miR-451 expression can distinguish between patients that could benefit from treatment with NAMPT inhibitors, such as FK866.

[4] = test system: Nalm-6 cells; assay: Apoptosis by FACS in Nalm-6 cells treated with FK866; type: cell-based; details: 1 nM, 48 hours
Description: (§1) Nalm-6 cells were treated for 1, 3, and 6 hours with 1 nM FK866 (Sigma) and NAD^+ formation was measured using NAD assay as described. […] To measure the effect of NAD^+ depletion following FK866 treatment on Nalm-6 cells, apoptosis and viability were measured. Nalm-6 cells were treated for 48 hours with 1 nM FK866 and apoptosis was measured using FACS.

[5] = test system: Nalm-6 cells; assay: NAD assay in Nalm-6 cells treated with FK866; type: cell-based; details: 1 nM, 1, 3 and 6 hours
Description: (§2) NAMPT is the rate-limiting enzyme in the NAD^+ biosynthetic pathway. Thus, NAD^+ levels in the stimulated cells were measured using a standard NAD^+ assay (Biovision NADH/NAD Quantification Kit).
as §1

[6] = test system: NAMPT 3′-UTR; assay: Luciferase reporter assay with NAMPT 3′-UTR; type: cell-based; details: P<0.05
Description: To confirm that NAMPT is a direct target of miR-451, luciferase reporter vectors were generated that contained the NAMPT 3′-UTR (LightSwitch NAMPT 3′UTR Reporter GoClone). Luciferase reporter assays (LightSwitch Luciferase Assay; SwitchGear) were then performed in the presence and absence of miR-451mimic and inhibitor to determine whether NAMPT was a direct downstream target of miR-451. The relative luciferase activity of the reporter that contained NAMPT 3′-UTR was decreased in 80% when miR-451 mimics were transfected.

[7] = test system: Nalm-6 cells; assay: Tumor growth of transfected Nalm-6 cells injected s.c. into NOD/SCID mice; type: in vivo
Description: To further study the putative tumor-suppressive function of hsa-miR-451 in vivo, 10^7 viable Nalm-6 untransfected cells, transfected in vitro with miR-451, or transfected with scrambled control nucleic acid, were injected s.c. into the right flanks of 6-week-old female NOD/SCID mice. […] On day 26, the median tumor volume in the scrambled control mice and the miR-451 mice were 204.69 mm^3 (SE=63.96) and 23.32 mm^3 (SE=13.12) respectively (P=0.019). At the end of the experiment mice were sacrificed and the tumors were weighted. The median tumor weight in the scrambled control mice and the miR-451 mice were 0.0966 gr (SE=0.040) and 0.0159 gr (SE=0.0009) respectively (P=0.046) (FIG. 4C).

[8] = test system: NAMPT; assay: NAMPT expression by FACS in transfected Nalm-6 cells; type: cell-based; details: P<0.05
Description: To determine the effects of miR-451 on NAMPT expression, Nalm-6 cells were transfected with miR-451 mimic (SEQ ID NO: 2) and miR-451 inhibitor (GeneCopoeia miArrest miR-451, an inhibitor expression clone) and NAMPT expression was measured by FACS analysis using a specific NAMPT antibody.

[9] = test system: NAMPT; assay: NAMPT expression by FACS after TPA treatment; type: cell-based; details: Peripheral blood cells, 50 ng/ml TPA, 24 hours
Description: Studies by several investigators have shown that 12-0-tetradecanoylphorbol-13-acetate (TPA) (Sigma) is an extraordinarily potent tumor promoter and stimulates protein kinase C (PKC). Since NAMPT is over-expressed in several tumors, it was believed that it might be possible to achieve NAMPT stimulation by TPA treatment. To test this hypothesis. Peripheral blood cells were treated with 50 ng/ml TPA for 24 hours and NAMPT expression was measured by FACS using a specific NAMPT antibody.

[10] = test system: cellular NAD^+ levels; assay: NAD+ assay in TPA stimulated cells; type: cell-based
Description: as §2

## miR-1290 mimic: miR-1290 mimic (SEQ ID NO: 4, over-expression) transfected into Nalm6 cell line (UGGAUUUUUGGAUCACCUGAUCCAAAAAU; listed as RNA, chemistry not given here)
[1]
  increase in the levels of pSTAT5 protein: 50%
[2]
  SOCS4 protein levels: down-regulation

## O=C(/C=C/c1cccnc1)NCCCCC1CCN(C(=O)c2ccccc2)CC1 [FK866]
[3]; Nalm-6/miR-451 cells (miR-451 mimic)
  change in NAD+ production after FK866 treatment compared to Nalm-6/miR-NC: less change
[3]; Nalm-6/miR-inhibitor cells, p=0.003
  change in NAD+ production after FK866 treatment compared to Nalm-6/miR-NC: more than 5 fold
[4]
  apoptosis: induced apoptosis
[5]
  NAD^+ detection following treatment: gradual decrease

## miR-451 mimic: miR-451 mimic (SEQ ID NO: 2) transfected into Nalm-6 cells by electroporation (AAACCGUUACCAUUACUGAGUU; listed as RNA, chemistry not given here; listed as Homo sapiens)
[6]
  relative luciferase activity of NAMPT 3′-UTR reporter decreased: 80%
[7]; NOD/SCID mice, Nalm-6/miR-451 cells s.c., versus scrambled miR control
  tumor growth: significantly decreased tumor growth
[7]; day 26, NOD/SCID mice, Nalm-6 cells transfected in vitro, P=0.019 vs scrambled control
  median tumor volume: 23.32 mm^3
[7]; end of the experiment, NOD/SCID mice, P=0.046 vs scrambled control
  median tumor weight: 0.0159 gr
[8]
  NAMPT protein expression decreased by: 46%

## CCCCCCCCCCCCCC(=O)O[C@@H]1[C@@H](C)[C@@]2(O)[C@@H](C=C(CO)C[C@]3(O)C(=O)C(C)=C[C@@H]23)[C@H]2C(C)(C)[C@]12OC(C)=O [TPA, 12-0-tetradecanoylphorbol-13-acetate]
[9]
  increase in NAMPT expression levels: more than 4 folds
[10]
  cellular NAD^+ levels higher: 2 fold
